Series [1] concerns T. cruzi (Tulahuen strain). The experiment in a line: In vitro anti-T. cruzi evaluation in an intracellular model (trypomastigote and amastigote forms, L929 host cells, β-galactosidase readout). The series is classed as cell-based, Trypanosoma cruzi. The note with it: for IC50: Tulahuen strain, intracellular trypomastigote and amastigote forms in L929 fibroblasts, 96 h, read-out: IC50 T. cruzi; for SI: selectivity index, L929 cells vs T. cruzi. How it is done:
Derivatives 5–10 were evaluated in vitro against T. cruzi in an intracellular model on the trypomastigote and amastigote forms of the parasite of the Tulahuen strain [20]. This model is interesting because it mimics the life cycle of the parasite, as both clinically relevant forms are present in the environment. The mammalian host cells used were fibroblasts from L929 mice.
This assay was performed as previously described by Buckner et al. (1996) using T. cruzi (Tulahuen strain), which expresses the β-galactosidase gene of Escherichia coli. Infectious trypomastigote forms were obtained by culturing fibroblast monolayers of L929 mice in RPMI-1640 medium (pH 7.2–7.4) without phenol red (Gibco BRL), containing 10% fetal bovine serum and 2 mM glutamine. For the bioassay, 4000 L929 cells in 80 µL of supplemented medium were added to each well of a 96-well microtiter plate. After overnight incubation, 40,000 trypomastigotes in 20 µL were added to the cells and incubated for 2 h. […] The medium was then replaced with compound solutions at 1.0 µg/mL in fresh medium (200 µL), and the plate was incubated for 96 h at 37 °C. After this period, 50 µL of chlorophenol D-galactopyranoside red (500 µM) in 0.5% Nonidet P40 was added to each well, and the plate was incubated for 18 h at 37 °C. After this, the absorbance was measured at 570 nm. Controls with uninfected cells and infected cells treated with benznidazole were performed in parallel. The results are expressed as the percentage of T. cruzi growth inhibition in cells tested with compost compared to infected and untreated cells. The tests were performed in triplicate.

Series [2] is described as follows: In vitro cytotoxicity of L929 cells (AlamarBlue). The series is classed as cell-based, mice. Particulars: mouse, four days. How it is done:
For this bioassay, 4000 mammalian cells in 200 µL of RPMI-1640 medium (pH 7.2–7.4) (Gibco BRL) plus 10% fetal bovine serum and 2 mM glutamine were added to each well of a 96-well microtiter plate, which was incubated for three days at 37 °C. […] After this period, 20 µL of AlamarBlue^TM was added to each well, and the plate was incubated for another 4–6 h. Then, the absorbance was measured at 570 nm. Controls with cells not treated and treated with benznidazole were performed in parallel, and triplicates were performed on the same plate. The results are expressed as the percent difference in the reduction between treated (CT) and untreated cells (UT) using the following equation:(1) 117.216Abs570 TC−80.586(Abs600 TC)/117.216Abs570 UT−80.586(Abs600 UT) × 100

The test system of series [3] is T. cruzi nitroreductase enzyme (TcNTR). The experiment in a line: Kinetic assay with Trypanosoma cruzi nitroreductase enzyme (NADH oxidation). The series is classed as biochemical. Particulars: for Kobs Deriv./Kobs BZN 50 µM: 50 µM derivative. How it is done:
To determine a potential mechanism of action, nitroazole derivatives 5, 6, 8 and 9 were evaluated as substrates of the T. cruzi nitroreductase enzyme (TcNTR) and compared to BZN, the reference prodrug (Table 2). The enzymatic activity was measured by monitoring the oxidation of NADH, the first substrate of the enzyme, via spectrophotometric assays. […] At a concentration of 25 µM, derivatives 5 and 8 were metabolized at rates 2.3 and 2.6 times higher than that of BZN, respectively. At 50 µM, the compounds presented metabolism rates 1.6 and 3.0 times higher than that of BZN, respectively.
The protocols for expressing, purifying and conducting kinetic analysis with the recombinant TcNTR enzyme were adapted from the methods originally developed by Shane Wilkinson, with certain modifications.
For the kinetics assays, it was prepared a 200 μL solution which included 50 mM Tris-Base at pH 7.5, with a constant concentration of both NADH (50 μM) and the substances 5, 6, 8, 9 or BZN. Specifically, two distinct fixed concentrations (25 and 50 μM) of the substances 5, 6, 8, 9 or BZN were tested. These prepared mixtures were then incubated for 5 min at room temperature. Subsequently, the reaction was initiated by adding NTR to achieve a final concentration of 10 μg/mL. The reaction rates were monitored using a Hitachi U-2900 spectrophotometer, measuring the consumption of the primary substrate, NADH (λ = 340 nm; ε = 6.220 M^−1 cm^−1), over a 2-min interval. The resulting data curves were analyzed through linear regression using OriginPro 2016 software. To evaluate the reaction rate (Kobs) obtained from the 25 and 50 μM concentrations of each substrate, comparisons were made with the reference values for BZN. Measurement errors were calculated using the formula: Error = Z × σ/√n, where ‘Z’ denotes the critical value, ‘σ’ represents the standard deviation and ‘n’ is the number of test measurements, which were performed at least in triplicate.

The next series deals with T. cruzi. Also on record: method as in PMID 10602737. The note with it: in vitro; read-out: IC50 against T. cruzi; cited from earlier work.
[4] abbreviates: Trypanosoma cruzi, TULAHUEN, L929, 96 h.

Like-named read-outs stand apart in the source and are kept apart here. Where only a bound is given, the exact number is not on record here.

The IC50 is the point on the concentration scale where inhibition reaches its midpoint. As usually defined, the CC50 is the concentration giving 50% cytotoxicity. As a reminder, the melting point is the temperature of the solid-liquid transition. For the molecule `O=C(Cn1cnc([N+](=O)[O-])n1)c1ccc(F)cc1F` [Compound 5, 1-(2,4-Difluorophenyl)-2-(3-nitro-1H-1,2,4-triazol-1-yl)ethanone], the melting point fell in the range of 117 to 119 °C. Further, the IC50 in series [1] (setting [4]) is 1.8 ± 0.07 µM. Moreover, the “times more potent against T. cruzi than 6” value in series [1] (ratio of IC50 T. cruzi to 2-nitroimidazole ketone 6) is on record as “approximately 50”. Besides, the SI in series [1] amounted to 667. The molecule also showed a CC50 at 4 days in series [2] of 1200 ± 0.01 µM. Further, the “Kobs Deriv./Kobs BZN 25 µM” value in series [3] (25 µM derivative, ratio of mean Kobs to BZN) was 2.3. For the same molecule, the “consumption rate by TcNTR, times higher than that of 6” value in series [3] (50 µM) was 6.6. In addition, the “Kobs Deriv./Kobs BZN 50 µM” value in series [3] (ratio of mean Kobs to BZN) is 1.6.

In the case of `O=C(Cn1ccnc1[N+](=O)[O-])c1ccc(F)cc1F` [Compound 6, 1-(2,4-Difluorophenyl)-2-(2-nitro-1H-imidazol-1-yl)ethanone], the melting point lay within 128 to 130 °C. Also, the IC50 in series [1] (setting [4]) is 90.9 µM. In addition, in series [1], the IC50 is 91 ± 4 µM and the SI was 7. Also, it took 629 ± 61 µM to reach half-maximal cytotoxicity in series [2] (CC50 at 4 days). For the same molecule, the “Kobs Deriv./Kobs BZN 50 µM” value in series [3] (ratio of mean Kobs to BZN) came to 0.3.

For the molecule `O=C(Cn1cncn1)c1ccc(F)cc1F` [Compound 7, 1-(2,4-Difluorophenyl)-2-(1H-1,2,4-triazol-1-yl)ethanone], the IC50 in series [1] (setting [4]) was above 200 µM.

As for `OC(Cn1cncn1)c1ccc(F)cc1F` (centres unmarked) [Compound 10, 1-(2,4-Difluorophenyl)-2-(1H-1,2,4-triazol-1-yl)ethanol], the melting point is 119 to 121 °C. For the same molecule, the IC50 in series [1] (setting [4]) is 120 ± 90 µM. The SI in series [1] is on record as above 27. This molecule registered a CC50 at 4 days in series [2] above 3200 µM.

As to `CC[C@@H]([C@H](C)O)n1ncn(-c2ccc(N3CCN(c4ccc(OC[C@@H]5CO[C@@](Cn6cncn6)(c6ccc(F)cc6F)C5)cc4)CC3)cc2)c1=O` [posaconazole], in the series on T. cruzi, the IC50 was below 0.001 µM.

Source of the values: PMC10672842, “Anti-Trypanosoma cruzi Activity, Mutagenicity, Hepatocytotoxicity and Nitroreductase Enzyme Evaluation of 3-Nitrotriazole, 2-Nitroimidazole and Triazole Derivatives” (Molecules, 2023).
